Data reported in patent US8188048B2 (priority 2006, dated 2012).
Values joined by “and” are separate entries in the source; they are usually repeats but may differ in a detail not shown here. Identical values can stand only once.

Tested on: CCI-rats (chronic constriction injury of the sciatic nerve); tactile allodynia in ipsilateral hindpaw, antinociception in contralateral hindpaw
Parameters: species or system Sprague-Dawley rats
Details: rat, in vivo

## pGlu Gly Val Cys1 Cys2 Gly Tyr Lys Leu Cys3 His Hyp Cys4 [SEQ ID NO: 6]
  ED10: 0.2 nmol
  ED20: 0.4 nmol
  ED50 for antinociception in the contralateral hindpaw: 15.2 nmol
  ED50 for the alleviation of tactile allodynia in the ipsilateral hindpaw: 14.8 (±1.1) nmol and 15.7 (±3.9) nmol
  change of mean PWT by 5 min post-dosing: more than doubled
  duration of action: 2 to 3 h and > 4 h
  duration of action relative to a similarly large dose of i.t. morphine (35 nmol): ~10 fold
  duration of anti-allodynic response relative to the 10 nmol dose: > 7 fold and > 13 fold
  duration of the anti-allodynic response: ~30 h and ~54 h
  effect on PWT in both the ipsilateral and contralateral hindpaws: dose-dependent increase
  extent and duration (PWT AUCs) of ipsilateral responses relative to contralateral responses: ~2 fold
  time of peak anti-allodynic and antinociceptive effects: 1 to 1.5 h
  time of peak antiallodynic and antinociceptive effects post-dosing: 15 min
  time of peak effect: 1 to 1.5 h
